Source: patent US20120288883A1, “PROBE REAGENT FOR MEASUREMENT OF PROTEOLYTIC ACTIVITY” (RIKEN, priority 2010, published 2012)

System: ubiquitin-proteasome system
Assay: Screening for degradation-terminating peptide: FRET fluorescence imaging of probe reagents expressed in HeLa cells
Assay type: cell-based
Conditions: CyPet/YPet probe with Geminin (1/110) degron
Text: In order to develop a probe reagent of interest, p105 was screened for a peptide sequence capable of terminating degradation. CyPet as a fluorescent protein I, YPet as a fluorescent protein II, and Geminin as a degron protein were used to prepare an experimental probe reagent (FIG. 2). The fluorescent protein CyPet is derived from CFP and has an excitation wavelength peak of 435 nm and a fluorescence wavelength peak of 477 nm. The fluorescent protein YPet is derived from YFP and has an excitation wavelength peak of 517 nm and a fluorescence wavelength peak of 530 nm. This pair is known to efficiently cause FRET with CyPet as a donor and YPet as an acceptor. The protein Geminin is a factor controlling the progression of cell cycle and has the function of inhibiting the licensing of DNA replication (Cell 1998; 93 (11): 1043-1053; and Am. J. Pathol. 2002; 161 (1): 267-273). Its abundance is strictly controlled during cell cycle so that its expression level increases in the S/G2/M phases and this protein disappears due to the promoted degradation by the ubiquitin-proteasome system in the G1 phase. A region of N-terminal amino acids 1-110 (Geminin (1/110)) containing a moiety necessary for the degradation of the Geminin molecule was selected from the structure of Geminin (e.g., NM_015895 (human, SEQ ID NOs: 18 and 19), NM_020567 (mouse)) and used in this experiment.
The respective cDNAs of these molecules were amplified by PCR and ligated by insertion to each restriction enzyme site in the multicloning site of a cloning vector pBluescript II SK(+) (Stratagene) to prepare gene DNA of the probe reagent. A region of amino acids 366-440 in human-derived p105 (SEQ ID NOs: 16 and 17) was screened for a peptide sequence for terminating degradation. This region contains GRR and processing point.
The prepared gene DNA of the probe reagent was then excised from the pBlueScript vector with restriction enzymes, and this fragment was inserted into the multicloning site of an expression vector CSII-EF-MCS to prepare a vector for expression in cultured cells.
HeLa cells were cultured in a Dulbecco's modified Eagle's medium containing 10% fetal bovine serum in a 35 mmφ glass-bottomed dish. The prepared vector plasmid was mixed with a transfection reagent FuGENE (Roche Applied Science) and added to the medium. The HeLa cells were cultured in a CO2 incubator for 2 days so that the cells expressed the probe reagent and experienced cell cycle.
This is because the intramolecular nuclear localization signal of the Geminin protein, which functions in the nucleus, allowed the probe reagent to be selectively incorporated into the nucleus. The amount of Geminin changes periodically depending on the promoted or suppressed degradation by the ubiquitin-proteasome system in accordance with cell cycle. If the degradation of the probe reagent accompanying the degradation of Geminin is terminated by the degradation-terminating peptide, CyPet accumulates in the cell during every cell cycle without being degraded and thus reduces an YPet/CyPet fluorescence intensity ratio serving as an index value for FRET at the time of CyPet excitation. After the degradation of Geminin, the probe reagent lacks the nuclear localization signal. As a result, the remaining CyPet molecule also becomes distributed in the cytoplasm. The cells were fluorescently imaged from these viewpoints and screened for a peptide capable of terminating degradation.
An inverted microscope (IX70, Olympus Corp.) was used in cell observation. Fluorescence images were obtained using a 3-CCD cooled color camera (ORCA-3CCD, Hamamatsu Photonics K.K.). This camera can simultaneously capture images in three wavelength (red, green, and blue) regions and merge them to form observable color images. Also, it can individually measure the brightness of the image in each wavelength region. After excitation with a 440 nm band-pass filter, the fluorescence images of the cells were obtained through a 460 nm long-pass filter. […]

Row | Substance | ability of the peptide to terminate degradation of the probe reagent
1 | GRR: glycine-rich region, amino acids 376-404 of human p105, tested alone as degradation-terminating peptide | failed to terminate the degradation
2 | p105 (376/409): probe reagent containing human p105 amino acids 376-409 (SEQ ID NO: 11) (GGGSGAGAGGGGMFGSGGGGGGTGSTGPGYSFPH; listed as Homo sapiens) | capable of efficiently terminating protein degradation
3 | p105 (376/420): probe reagent containing human p105 amino acids 376-420 (SEQ ID NO: 9) (GGGSGAGAGGGGMFGSGGGGGGTGSTGPGYSFPHYGFPTYGGITF; listed as Homo sapiens) | capable of efficiently terminating protein degradation
4 | p105 (376/434): probe reagent containing human p105 amino acids 376-434 (SEQ ID NO: 7) (GGGSGAGAGGGGMFGSGGGGGGTGSTGPGYSFPHYGFPTYGGITFHPGTTKSNAGMKHG; listed as Homo sapiens) | capable of efficiently terminating protein degradation
5 | p105 (382/440): probe reagent containing human p105 amino acids 382-440 (SEQ ID NO: 3) (GAGGGGMFGSGGGGGGTGSTGPGYSFPHYGFPTYGGITFHPGTTKSNAGMKHGTMDTES; listed as Homo sapiens) | capable of efficiently terminating protein degradation
6 | p105 (392/440): probe reagent containing human p105 amino acids 392-440 (SEQ ID NO: 5) (GGGGGGTGSTGPGYSFPHYGFPTYGGITFHPGTTKSNAGMKHGTMDTES; listed as Homo sapiens) | capable of efficiently terminating protein degradation
